Source: US20240261283A1, “PHARMACEUTICAL PREPARATION FOR PREVENTING OR TREATING PULMONARY FIBROSIS” (J2H BIOTECH INC., priority 2021, published 2024)

Legend:
[1] = test system: pulmonary fibrosis mouse model induced by radiation; test: Radiation-induced pulmonary fibrosis mouse model, collagen deposition by Masson's trichrome staining of lung tissue; format: in vivo, C57BL/6 mice; details: radiation 90 Gy to chest; oral, twice a day, 14 days; nintedanib 30 mg/kg (G2), Chemical Formula 1 compound 10 mg/kg (G3), combination 10 + 30 mg/kg (G4); compared to vehicle group (G1)
Procedure: The test compound was administered orally to C57BL/6 male 8-week-old mice, and 1 hour later, radiation (90 Gy, 4 mm collimator) was irradiated to the chest at a size of 3 mm. Afterwards, test compounds were administered orally twice a day for 14 days, and then an autopsy was performed. Mouse lung tissue was fixed with 10% formalin, paraffin sections were made, and the degree of collagen deposition within the tissue was confirmed using trichrome staining.
According to Reference Example 1, test compounds were administered to a mouse model of radiation-induced pulmonary fibrosis and an autopsy was performed. Mouse lung tissue was fixed in 10% neutral formalin for one day and paraffin sections were made. To remove paraffin around the tissue, it was sequentially reacted in xylene, 95, 90, and 70% ethanol solutions for 5 minutes each. To activate the tissue antigen, the tissue was immersed in a 0.1 M citric acid (pH 6.0) solution and boiled for 20 minutes. Then, it was sequentially reacted with Bouin's solution for 1 minute, Weigert's hematoxylin for 10 minutes, Phosphotunstic/phosphomolydic acid for 10 minutes, aniline blue for 5 minutes, and 1% acetic acid for 1 minute. Next, after a dehydration process, it was sealed with a cover glass and observed under a microscope (Carl Zeiss Vision).

[2] = test system: bleomycin-induced pulmonary fibrosis mouse model; test: Bleomycin-induced pulmonary fibrosis mouse model, hydroxyproline in lung tissue lysate by ELISA; format: in vivo, C57BL/6N mice; details: oral, twice a day, 14 days
Procedure: C57BL/6N mice were anesthetized using isoflurane. Afterwards, an incision was made in the center of the neck to expose the airway. Bleomycin dissolved in physiological saline injection solution was slowly injected at 1.25 mg/kg into the exposed upper respiratory tract using an insulin syringe. Afterwards, the insulin syringe was removed and the incision was sutured. Afterwards, test compounds were administered orally twice a day for 14 days, and then an autopsy was performed. The mouse's left lung tissue was fixed with 10% formalin, paraffin sections were made, and the degree of lung fibrosis was evaluated using H&E staining. The right lung was tissue lysed for qPCR and hydroxyproline measurements. Afterwards, it was used in each experiment to evaluate the expression of lung fibrosis-related genes and the degree of collagen deposition in the lung.
According to Reference Example 2, test compounds were administered to a mouse model of bleomycin-induced pulmonary fibrosis and an autopsy was performed. The left lung tissue of the mouse was fixed in 10% neutral formalin for one day and paraffin sections were made. To remove paraffin around the tissue, it was sequentially reacted in xylene, 95, 90, and 70% ethanol solutions for 5 minutes each. […] The other half of the tissue was lysed and the lysate was analyzed using a hydroxyproline ELISA kit.

| Structure (SMILES) | anti-fibrotic effect of suppressing collagen deposition (trichrome staining, FIGS. 1 and 2) [1] | collagen deposition, primary evaluation index of pulmonary fibrosis (conclusion of Example 2) ([2]; bleomycin-induced model, doses as in Table 2) | expression of hydroxyproline in lung tissue (FIG. 5) ([2]; bleomycin 1.25 mg/kg, Chemical Formula 1 compound 30, 100, 200 mg/kg (G3-G5), combination 60 + 30 mg/kg (G6), nintedanib 60 mg/kg (G7), compared to vehicle group (G2)) |
| --- | --- | --- | --- |
| C[C@@H]1CN(c2ccc(S(C)(=O)=O)cc2F)CCN1c1nccc(C(=O)N[C@H]2C3CC4CC2C[C@](O)(C4)C3)n1 [compound of Chemical Formula 1, 2-((R)-4-(2-fluoro-4-(methylsulfonyl)phenyl)-2-methylpiperazin-1-yl)-N-((1R,2s,3S,5S,7S)-5-hydroxyadamantan-2-yl)pyrimidine-4-carboxamide] | significantly inhibits collagen deposition | significantly inhibits collagen deposition |  |
| COC(=O)c1ccc2c(c1)NC(=O)/C2=C(\Nc1ccc(N(C)C(=O)CN2CCN(C)CC2)cc1)c1ccccc1 [nintedanib] | high significance |  | significant differences were confirmed in all administration groups except the nintedanib single administration group (G7) |
